Results from patent US9682928B2 (NeuroPro Therapeutics, Inc., priority 2009, dated 2017).

Legend:
Rat [1] = assay: MES (Rat); assay type: in vivo
Rat [2] = assay: Cortical spreading depression (rat), IP administration; assay type: in vivo
Na+K+Cl− co-transporter = biological target: T1, Na+K+Cl− co-transporter (Rattus norvegicus, UniProt E9PTX9); assay: Na+K+Cl− cotransporter assay, 86Rb uptake in A7r5 cells; assay type: cell-based; conditions: 10 minutes at 37° C.; for inhibition at 10 µM: read-out: % Inhibition of Control Values; for remaining activity at 10 µM: read-out: % of Control Value
T1 construct: endogenous in cells; host or cells: A7r5 cells
T1 sequence (E9PTX9 1-1203): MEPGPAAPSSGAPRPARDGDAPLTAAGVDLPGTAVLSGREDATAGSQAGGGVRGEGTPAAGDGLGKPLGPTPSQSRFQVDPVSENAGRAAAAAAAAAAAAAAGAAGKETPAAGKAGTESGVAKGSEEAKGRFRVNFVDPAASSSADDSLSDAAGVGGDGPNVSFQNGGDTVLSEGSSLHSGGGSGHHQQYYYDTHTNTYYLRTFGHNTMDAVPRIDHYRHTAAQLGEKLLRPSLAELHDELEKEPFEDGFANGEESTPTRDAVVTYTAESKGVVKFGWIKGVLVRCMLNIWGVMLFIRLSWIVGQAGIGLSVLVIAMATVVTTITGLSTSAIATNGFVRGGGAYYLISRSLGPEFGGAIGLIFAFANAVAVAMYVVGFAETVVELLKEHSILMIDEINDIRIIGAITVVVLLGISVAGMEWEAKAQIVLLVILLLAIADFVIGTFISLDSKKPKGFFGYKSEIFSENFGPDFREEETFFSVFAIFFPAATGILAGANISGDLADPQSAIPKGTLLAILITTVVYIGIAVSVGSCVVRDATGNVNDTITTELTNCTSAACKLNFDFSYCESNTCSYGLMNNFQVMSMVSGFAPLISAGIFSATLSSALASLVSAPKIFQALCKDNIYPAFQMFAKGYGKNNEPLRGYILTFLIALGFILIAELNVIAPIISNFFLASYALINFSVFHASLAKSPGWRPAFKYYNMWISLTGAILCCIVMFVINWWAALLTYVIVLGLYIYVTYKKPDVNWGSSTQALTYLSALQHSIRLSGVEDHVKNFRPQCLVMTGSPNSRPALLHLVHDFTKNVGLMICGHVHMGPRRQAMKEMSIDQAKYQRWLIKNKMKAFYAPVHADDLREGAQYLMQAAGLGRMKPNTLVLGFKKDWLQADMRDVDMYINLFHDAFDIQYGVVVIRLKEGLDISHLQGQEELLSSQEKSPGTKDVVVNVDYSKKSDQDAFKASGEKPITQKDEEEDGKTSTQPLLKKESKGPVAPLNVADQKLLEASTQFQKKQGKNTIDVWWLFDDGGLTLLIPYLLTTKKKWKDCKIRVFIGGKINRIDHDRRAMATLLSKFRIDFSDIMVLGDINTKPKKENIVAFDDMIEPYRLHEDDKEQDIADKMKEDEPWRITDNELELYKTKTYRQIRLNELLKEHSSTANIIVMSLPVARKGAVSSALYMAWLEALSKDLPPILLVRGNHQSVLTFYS
Protocol: Na^+K^+Cl^− co-transporter activity was measured in vitro in A7r5 cells by measuring their uptake of ^86Rb (0.2 μCi) in 10 minutes at 37° C. as detected by scintillation counting. See Chassande, et al. (1988) “The Na^+/K^+/Cl^− Cotransport in C6 glioma cells. Properties and role in volume regulation.” Eur. J. Biochem. 171: 425433.

Mice = assay: 6 Hz (Mice); assay type: in vivo
adult mice (C57/B16) = assay: Mesial temporal lobe epilepsy model (mice), hippocampal discharges; assay type: in vivo, mouse; conditions: for Cumulative duration of hippocampal discharges / Number of hippocampal discharges: 50 mg/kg for NTP-2014 and NTP-2026, 150 mg/kg for NTP-2024, NTP-2006, NTP-1007, NTP-1003; for Suppression of discharges through 80 minutes post-dose: 25 and 50 mg/kg (NTP-2014), 50 mg/kg (NTP-2026); for Significant decrease in cumulative duration of and total number of hippocampal discharges: dose-response study, mice
Protocol: Antiepileptic protocol: Up to eight adult mice (C57/B16) are injected with kainate (1 nmol in 50 nl) and are implanted with a bipolar electrode in the dorsal hippocampus using stereotaxic techniques under general anesthesia. […] Drug conditions are counter-balanced, the animals being used as their own controls. Digital EEG recordings are performed in freely moving animals for 20 min pre-injection and 80 min post-injection. The effects of the injected compound are compared versus vehicle injections and reference period (pre-dose). Upon completion of the experiment, standard histological analysis are performed to verify electrode location, cell losses in CA1, CA3 and hilus, as well as dentate gyrus dispersion. Only animals with all characteristics of MTLE are used in data analysis. […] The results below are normalized to the pre-dose condition for each of the treatment group including DMSO and saline vehicle controls. Doses of test article compounds were 50 mg/kg for NTP-2014 and NTP-2026 and 150 mg/kg for NTP-2024, NTP-2006, NTP-1007, and NTP-1003. Therefore the bumetanide, furosemide, piretanide, azosemide, and torsemide esters and amide analogs described herein may be used in therapeutic methods to treat seizures.

[3] = doses up to 200 mg/kg, no metabolic inhibitor coadministered

CCCCNc1cc(C(=O)O)cc(S(N)(=O)=O)c1Oc1ccccc1 [Bumetanide, reference compound]
Activity in MES (Rat [1]; [3]): No activity at doses up
Decrease in CSD events (Rat [2]; 10 and 30 mg/kg, p~0.05): CSD events (~30%) at 10 and 30
inhibition at 10 µM (Na+K+Cl− co-transporter): 76%
remaining activity at 10 µM (Na+K+Cl− co-transporter): 24%

CCCCN(CCCC)c1cc(C(=O)O)cc(S(N)(=O)=O)c1Oc1ccccc1 [NTP-2014, 3-Aminosulfonyl-5-N,N-dibutylamino-4-phenoxybenzoic acid]
Significant adverse events (Rat [1]; 100 mg/kg): seen at 300 mg/kg. No
Toxic effects (Rat [1]; 300 mg/kg): mg/kg. Toxic effects
Rats with complete suppression (Rat [1]; at 4 hr, 100 mg/kg): at 4 hr in 2/3 rats at 100
Toxicity in 6 Hz study (Mice; 100 mg/kg): mg/kg. No toxicity.
Suppression / activity in 6 Hz (Mice; 100 mg/kg, NTP-2014: all animals to 1 h, majority through 4 h, NTP-2026: 2 timepoints (2 hr, 4 hr)): Complete
Cumulative duration of hippocampal discharges (adult mice (C57/B16)): decreased
Number of hippocampal discharges (adult mice (C57/B16)): decreased
Suppression of discharges through 80 minutes post-dose (adult mice (C57/B16)): 25 and 50 mg/kg, near complete
Significant decrease in cumulative duration of and total number of hippocampal discharges (adult mice (C57/B16)): Dose-response relationship
Change in CSD events (Rat [2]; 10 mg/kg IP, p < 0.05): −38%
Change in CSD events (Rat [2]; 50 mg/kg IP, p < 0.05): −37%
Change in CSD events (Rat [2]; 75 mg/kg IP, p < 0.05): −47%
inhibition at 10 µM (Na+K+Cl− co-transporter): -4%
remaining activity at 10 µM (Na+K+Cl− co-transporter): 104%

CCCCNc1cc(C(=O)NN2CCOCC2)cc(S(N)(=O)=O)c1Oc1ccccc1 [NTP-2024, N-Morpholinyl 3-Aminosulfonyl-5-N-butylamino-4-phenoxybenzamide]
Activity in 6 Hz (Mice; [3]): No activity at doses
Cumulative duration of hippocampal discharges (adult mice (C57/B16)): decreased
Number of hippocampal discharges (adult mice (C57/B16)): decreased
Significant decrease in cumulative duration of and total number of hippocampal discharges (adult mice (C57/B16)): Dose-response relationship
Decrease in CSD events (Rat [2]; 300 mg/kg, co-administered general metabolic inhibitor (NS)): 32% decrease in CSD events at
% Inhibition of Control Values (Na+K+Cl− co-transporter; 10 μM): 20%
% of Control Value (Na+K+Cl− co-transporter; 10 μM): 80.2%

CCCCNc1cc(C(=O)N(C)CCCN(C)C)cc(S(N)(=O)=O)c1Oc1ccccc1 [NTP-2026, N-(3-(Dimethylamino)propyl)-N-methyl 3-Aminosulfonyl-5-N-butylamino-4-phenoxybenzamide]
Activity in MES (Rat [1]; 30, 100, 330 mg/kg): No activity at 30, 100,
Toxicity in 6 Hz study (Mice; 100 mg/kg): No toxicity.
Cumulative duration of hippocampal discharges (adult mice (C57/B16)): decreased
Number of hippocampal discharges (adult mice (C57/B16)): decreased
Suppression of discharges through 80 minutes post-dose (adult mice (C57/B16)): 50 mg/kg, near complete suppression of
Significant decrease in cumulative duration of and total number of hippocampal discharges (adult mice (C57/B16)): Dose-response relationship
Decrease in CSD events (Rat [2]; 10-75 mg/kg, p < 0.05): CSD events (~30-40%) at 10-75
